Data: publication PMC11277489, “Novel Piperazine Derivatives of Vindoline as Anticancer Agents” (International Journal of Molecular Sciences, 2024)

Key:
SF-268 = test: NCI60 one-dose screen (10 μM), CNS Cancer; type: cell-based; conditions: Homo sapiens; 10 μM; SF-268, CNS Cancer; read-out: Growth percent rate
RPMI-8226 = test: NCI60 one-dose screen (10 μM), Leukemia; type: cell-based; conditions: Homo sapiens; 10 μM; RPMI-8226, Leukemia; read-out: Growth percent rate
TK-10 = test: NCI60 one-dose screen (10 μM), Renal Cancer; type: cell-based; conditions: Homo sapiens; 10 μM; TK-10, Renal Cancer; read-out: Growth percent rate
SF-539 = test: NCI60 one-dose screen (10 μM), CNS Cancer; type: cell-based, human; conditions: Homo sapiens; 10 μM; SF-539, CNS Cancer; read-out: Growth percent rate
ACHN = test: NCI60 one-dose screen (10 μM), Renal Cancer; type: cell-based; conditions: Homo sapiens, 10 μM, Renal Cancer, read-out: Growth percent rate
SNB-19 = test: NCI60 one-dose screen (10 μM), CNS Cancer; type: cell-based; conditions: Homo sapiens; 10 μM; SNB-19, CNS Cancer; read-out: Growth percent rate
SN12C = test: NCI60 one-dose screen (10 μM), Renal Cancer; type: cell-based; conditions: Homo sapiens, 10 μM, Renal Cancer, read-out: Growth percent rate
HCT-15 = test: NCI60 one-dose screen (10 μM), Colon Cancer; type: cell-based; conditions: Homo sapiens; 10 μM; HCT-15, Colon Cancer; read-out: Growth percent rate
HT29 = test: NCI60 one-dose screen (10 μM), Colon Cancer; type: cell-based; conditions: Homo sapiens, HT-29; 10 μM; HT29, Colon Cancer; read-out: Growth percent rate
HL-60(TB) = test: NCI60 one-dose screen (10 μM), Leukemia; type: cell-based; conditions: Homo sapiens; 10 μM; HL-60(TB), Leukemia; read-out: Growth percent rate
OVCAR-4 = test: NCI60 one-dose screen (10 μM), Ovarian Cancer; type: cell-based; conditions: Homo sapiens; 10 μM; OVCAR-4, Ovarian Cancer; read-out: Growth percent rate
NCI-H23 = test: NCI60 one-dose screen (10 μM), Non-small Cell Lung Cancer; type: cell-based; conditions: Homo sapiens; 10 μM; NCI-H23, Non-small Cell Lung Cancer; read-out: Growth percent rate
CAKI-1 = test: NCI60 one-dose screen (10 μM), Renal Cancer; type: cell-based; conditions: Homo sapiens; 10 μM; CAKI-1, Renal Cancer; read-out: Growth percent rate
RXF 393 = test: NCI60 one-dose screen (10 μM), Renal Cancer; type: cell-based, human; conditions: Homo sapiens; 10 μM; RXF 393, Renal Cancer; read-out: Growth percent rate
COLO 205 = test: NCI60 one-dose screen (10 μM), Colon Cancer; type: cell-based, human; conditions: Homo sapiens; 10 μM; COLO 205, Colon Cancer; read-out: Growth percent rate
SK-MEL-28 = test: NCI60 one-dose screen (10 μM), Melanoma; type: cell-based; conditions: Homo sapiens; 10 μM; SK-MEL-28, Melanoma; read-out: Growth percent rate
MDA-MB-435 = test: NCI60 one-dose screen (10 μM), Melanoma; type: cell-based; conditions: Homo sapiens; 10 μM; MDA-MB-435, Melanoma; read-out: Growth percent rate
SK-MEL-2 = test: NCI60 one-dose screen (10 μM), Melanoma; type: cell-based; conditions: Homo sapiens; 10 μM; SK-MEL-2, Melanoma; read-out: Growth percent rate
OVCAR-8 = test: NCI60 one-dose screen (10 μM), Ovarian Cancer; type: cell-based; conditions: Homo sapiens; 10 μM; OVCAR-8, Ovarian Cancer; read-out: Growth percent rate
NCI-H522 = test: NCI60 one-dose screen (10 μM), Non-small Cell Lung Cancer; type: cell-based; conditions: Homo sapiens; 10 μM; NCI-H522, Non-small Cell Lung Cancer; read-out: Growth percent rate
HCT-116 = test: NCI60 one-dose screen (10 μM), Colon Cancer; type: cell-based; conditions: Homo sapiens; 10 μM; HCT-116, Colon Cancer; read-out: Growth percent rate
SW-620 = test: NCI60 one-dose screen (10 μM), Colon Cancer; type: cell-based; conditions: Homo sapiens; 10 μM; SW-620, Colon Cancer; read-out: Growth percent rate
NCI-H322M = test: NCI60 one-dose screen (10 μM), Non-small Cell Lung Cancer; type: cell-based; conditions: Homo sapiens, 10 μM, Non-small Cell Lung Cancer, read-out: Growth percent rate
KM12 = test: NCI60 one-dose screen (10 μM), Colon Cancer; type: cell-based, human; conditions: Homo sapiens; 10 μM; KM12, Colon Cancer; read-out: Growth percent rate
MCF7 = test: NCI60 one-dose screen (10 μM), Breast Cancer; type: cell-based; conditions: Homo sapiens; 10 μM; MCF7, Breast Cancer; read-out: Growth percent rate
A549/ATCC = test: NCI60 one-dose screen (10 μM), Non-small Cell Lung Cancer; type: cell-based; conditions: Homo sapiens; 10 μM; A549/ATCC, Non-small Cell Lung Cancer; read-out: Growth percent rate
CCRF-CEM = test: NCI60 one-dose screen (10 μM), Leukemia; type: cell-based; conditions: Homo sapiens, 10 μM, Leukemia, read-out: Growth percent rate
MALME-3M = test: NCI60 one-dose screen (10 μM), Melanoma; type: cell-based; conditions: Homo sapiens; 10 μM; MALME-3M, Melanoma; read-out: Growth percent rate
OVCAR-3 = test: NCI60 one-dose screen (10 μM), Ovarian Cancer; type: cell-based; conditions: Homo sapiens; 10 μM; OVCAR-3, Ovarian Cancer; read-out: Growth percent rate
786–0 = test: NCI60 one-dose screen (10 μM), Renal Cancer; type: cell-based; conditions: Homo sapiens; 10 μM; 786-0, Renal Cancer; read-out: Growth percent rate
UACC-257 = test: NCI60 one-dose screen (10 μM), Melanoma; type: cell-based; conditions: Homo sapiens; 10 μM; UACC-257, Melanoma; read-out: Growth percent rate
HCC-2998 = test: NCI60 one-dose screen (10 μM), Colon Cancer; type: cell-based; conditions: Homo sapiens; 10 μM; HCC-2998, Colon Cancer; read-out: Growth percent rate
K-562 = test: NCI60 one-dose screen (10 μM), Leukemia; type: cell-based; conditions: Homo sapiens, K562; 10 μM; K-562, Leukemia; read-out: Growth percent rate
HOP-62 = test: NCI60 one-dose screen (10 μM), Non-small Cell Lung Cancer; type: cell-based; conditions: Homo sapiens; 10 μM; HOP-62, Non-small Cell Lung Cancer; read-out: Growth percent rate
LOX IMVI = test: NCI60 one-dose screen (10 μM), Melanoma; type: cell-based, human; conditions: Homo sapiens; 10 μM; LOX IMVI, Melanoma; read-out: Growth percent rate
HS 578T = test: NCI60 one-dose screen (10 μM), Breast Cancer; type: cell-based; conditions: Homo sapiens; 10 μM; HS 578T, Breast Cancer; read-out: Growth percent rate
SK-MEL-5 = test: NCI60 one-dose screen (10 μM), Melanoma; type: cell-based, human; conditions: Homo sapiens; 10 μM; SK-MEL-5, Melanoma; read-out: Growth percent rate
EKVX = test: NCI60 one-dose screen (10 μM), Non-small Cell Lung Cancer; type: cell-based; conditions: Homo sapiens, 10 μM, Non-small Cell Lung Cancer, read-out: Growth percent rate
IGROV1 = test: NCI60 one-dose screen (10 μM), Ovarian Cancer; type: cell-based; conditions: Homo sapiens, IGROV-1; 10 μM; IGROV1, Ovarian Cancer; read-out: Growth percent rate
SF-295 = test: NCI60 one-dose screen (10 μM), CNS Cancer; type: cell-based; conditions: Homo sapiens; 10 μM; SF-295, CNS Cancer; read-out: Growth percent rate
MOLT-4 = test: NCI60 one-dose screen (10 μM), Leukemia; type: cell-based, human
M14 = test: NCI60 one-dose screen (10 μM), Melanoma; type: cell-based; conditions: Homo sapiens; 10 μM; M14, Melanoma; read-out: Growth percent rate

CC[C@]12C=CCN3CC[C@@]4(c5ccc(OC)cc5N(C)[C@H]4[C@@](O)(C(=O)OC)[C@@H]1OC(=O)CCC(=O)N1CCN(C(c4ccc(F)cc4)c4ccc(F)cc4)CC1)[C@@H]32 [Compound 31]
activity at 10 µM (SF-268): 7.32% | activity at 10 µM (RPMI-8226): -98.1% | activity at 10 µM (TK-10): -32.1% | activity at 10 µM (SF-539): -38.4% | activity at 10 µM (ACHN): -35.8% | activity at 10 µM (SNB-19): 8.85% | activity at 10 µM (SN12C): -89.1% | activity at 10 µM (HCT-15): 3.11% | activity at 10 µM (HT29): -83.3% | activity at 10 µM (HL-60(TB)): -98.4% | activity at 10 µM (OVCAR-4): -34.6% | activity at 10 µM (NCI-H23): -23.4% | activity at 10 µM (CAKI-1): 1.73% | activity at 10 µM (RXF 393): -56.3% | activity at 10 µM (COLO 205): -45% | activity at 10 µM (SK-MEL-28): -6.67% | activity at 10 µM (MDA-MB-435): -23.3% | activity at 10 µM (SK-MEL-2): -85.4% | activity at 10 µM (OVCAR-8): -13.2% | activity at 10 µM (NCI-H522): -22.2% | activity at 10 µM (HCT-116): -32.4% | activity at 10 µM (SW-620): -37% | activity at 10 µM (NCI-H322M): -0.86% | activity at 10 µM (KM12): -50.8% | activity at 10 µM (MCF7): -28.7% | activity at 10 µM (A549/ATCC): 1.83% | activity at 10 µM (CCRF-CEM): -81.9% | activity at 10 µM (MALME-3M): -16.6% | activity at 10 µM (OVCAR-3): -71% | activity at 10 µM (786–0): -40.3% | activity at 10 µM (UACC-257): -30.8% | activity at 10 µM (HCC-2998): -66.9% | activity at 10 µM (K-562): 7.65% | activity at 10 µM (HOP-62): -57% | activity at 10 µM (LOX IMVI): -56% | activity at 10 µM (HS 578T): -32.6% | activity at 10 µM (SK-MEL-5): -88% | activity at 10 µM (EKVX): -17.8% | activity at 10 µM (IGROV1): -92.2% | activity at 10 µM (SF-295): -61.1% | growth percent rate (MOLT-4; 10 μM one-dose, MOLT-4 leukemia, negative = lethality): −98.81% | activity at 10 µM (MOLT-4; Homo sapiens, 10 μM, MOLT-4, Leukemia, read-out: Growth percent rate): -98.8% | activity at 10 µM (M14): 0.99%
